Assay results as given in patent US20050119310A1, “Use of n-substituted-1,5-dideoxy-1,5-imino-d-glucitol compounds for treating hepatitis virus infections” (priority 2000, published 2005).

How the values were obtained:
Hepatitis B Virus = experiment: Hepatitis B virus secretion from chronically HBV secreting HepG2.2.15 cells (preS1 immunoprecipitation / PCR); format: cell-based; details: 3 days of incubation, control = 100%
Experimental: The anti-hepatitis B virus activity and effect on cell viability of a number of different N-substituted-1,5-dideoxy-1,5-imino-D-glucitol compounds were assessed using an in vitro assay employing chronically hepatitis B virus secreting HepG2.2.15 cells. The method employed was essentially that described in Block et al. (1994) Proc. Natl. Acad. Sci. USA 91:2235-2239.

[1] = system: hepatitis B virus in HepG 2.2.15 (2.2.15) cells; experiment: IC-90 values used for the combostat method (earlier determinations); format: cell-based; details: HepG2.2.15, T. Block and G. Jacob, unpublished observation
Experimental: The anti-hepatitis B virus effect of (−)-2′-deoxy-3′-thiocytidine-5′-triphosphate (3TC) alone and in combination with N-nonyl-DNJ was determined according to Korba ((1996) Antiviral Research 29(1):49-51), using the “combostat” strategy (Comstat Program, Combostat Corp., Duluth, Minn.). The combostat method involves serially diluting the IC-90 of each compound. The IC-90 of N-nonyl-DNJ has been determined to be between 4 and 10 μg/ml (T. Block and G. Jacob, unpublished observation). The accepted IC-90 for 3TC in HepG 2.2.15 (2.2.15) cells is 300 nM to 500 nM (Doong et al. (1991) Proc. Natl. Acad. Sci. USA 88:8495-8499).

[2] = system: woodchuck hepatitis virus (WHV); experiment: Woodchuck model, N-nonyl-DNJ monotherapy, total HBV DNA and immune precipitated HBV DNA (IPDNA); format: in vivo
Experimental: Therefore, five groups of four animals each (all groups had both sexes, all but the control had two of each sex) were assigned to 0, 12.5, 25, 50, and 100 mg/kg/day with BID oral dosing. These were lab-reared wild animals. All animals were infected with woodchuck hepatitis virus (WHV) as neonates, and had been tested positive on serological tests for WHV surface antigen. Blood samples were drawn one week prior to dosing (−1 week), immediately before dosing (0 weeks), weekly during dosing (1, 2, 3, and 4 weeks), and after the end of dosing (5, 6, 8, and 10 weeks).
There are two measures of drug efficacy: reduction in total HBV DNA (measured by quantitative PCR), and reduction in HBV DNA from capsids with intact surface glycoproteins, which is the active form of the virus (measured by an ELISA-like immune precipitation assay followed by quantitative PCR).
Before models are fitted to the data, a log transform was applied because: 1) the variation in IPDNA increases with increasing IPDNA values; the log transformation gives values with a nearly constant variation, and 2) it is expected that drug effects will appear as a constant multiplier of the IPDNA level. Because there are zero values of IPDNA, a small value (about ½ of the smallest non-zero value) was added to all values before the log transform.
Two approaches were used to model the changes in slope to week with dose of N-nonyl-DNJ: a linear modeling approach and a nonlinear model. Both approaches assume that the (linear) rate of change of the Log(IPDNA) measure over the dosing period is the “right” measure to reflect the effect of the drug on the virus. Both approaches are fit in stages, and the first stage is common to both approaches. First, a simple straight line regression model is fit using weeks 0-4 to predict log(IPDNA+10) separately for each animal by run combination. In the second stage, the response variable is the slope fitted in the first stage.
For the linear approach, a model is fit with slope to week as the response where run is considered a block, dose has a significant effect (almost all of this effect is due to a slope to dose), and the relevant error for testing the effect of dose is the variation among animals treated alike (after the adjustment for the runs as blocks). This is similar to using the calibration data within each run to first adjust each run's data to a common virus DNA concentration; the difference is that here the data from the woodchucks are used for the run adjustment rather than only the calibration data.
For the nonlinear approach, a four parameter logistic model is fit with the slope to week as the response and the dose as the predictor. Again, run is considered a block, but because no run has all weeks, it is not possible to fully reflect the blocking in the nonlinear approach. […] The average maximum slope observed was 2.71 additional Log(IPDNA μg/mL)/week, or an increase of about 150%/week, the average minimum slope observed with N-nonyl-DNJ is 0.31 fewer Log(IPDNA μg/mL)/week), or about a decrease of about 25%/week. The slopes, the fitted model, the parameter estimates from the model, and the approximate standard errors for these parameters are all shown in FIG. 3. […] Whether in woodchucks or humans, the effective dose of both the N-alkyl-DNJ and nucleoside or nucleotide antiviral agent administered in combination therewith can be administered in two equal daily subdoses (i.e., B.I.D.).

[3] = woodchuck, weeks 0-4, with N-nonyl-DNJ

Structure (SMILES)	Relative amount of HBV secreted, as a % of control (Hepatitis B Virus; concentration [200])	Relative amount of HBV secreted, as a % of control (Hepatitis B Virus; concentration [1000])	IC90 [1] [µg/mL]	effect on total HBV DNA measurements ([2]; woodchuck, 12.5-100 mg/kg/day BID oral, 4 weeks of dosing)	EC50, four parameter logistic model of slope of Log(IPDNA+10) to week versus dose ([2]; woodchuck, oral BID) [mg/kg/BID dose]	increase of IPDNA at average maximum slope ([2]; woodchuck, weeks 0-4)	average maximum slope observed, additional Log(IPDNA)/week ([2]; woodchuck, weeks 0-4, upper end of fitted model)	average minimum slope observed, fewer Log(IPDNA)/week [2, 3]	decrease of IPDNA at average minimum slope [2, 3]	approximate effective monotherapy dose ([2]; woodchucks)
CCCCN1C[C@H](O)[C@@H](O)[C@H](O)[C@H]1CO [NBDNJ, N-(n-butyl-)-1,5-dideoxy-1,5-imino-D-glucitol]	37.0 +/− 13 (n = 15) %	3.2 +/− 5 (n = 15) %	–	–	–	–	–	–	–	–
CCC(CC)CN1C[C@H](O)[C@@H](O)[C@H](O)[C@H]1CO [Compound 3, N-(2-ethylbutyl)-1,5-dideoxy-1,5-imino-D-glucitol]	45.0 +/− 30 (n = 3) %	5.0 +/− 20 (n = 3) %	–	–	–	–	–	–	–	–
CCCCCCCCCN1C[C@H](O)[C@@H](O)[C@H](O)[C@H]1CO [Compound 1, N-(n-nonyl)-1,5-dideoxy-1,5-imino-D-glucitol]	–	–	4 to 10	no effect	7.88	about 150 %/week	2.71 Log(IPDNA μg/mL)/week	0.31 Log(IPDNA μg/mL)/week	about 25 %/week	about 16 mg/kg/day
